This note sets out measurements from patent US20230339886A1 (University of Florida Research Foundation, Incorporated, priority 2020, published 2023).

Some results are limits rather than exact numbers.

Assay [1] addresses T1, REV-ERBα LBD (human; residues 281-614 Δ324-422) (Homo sapiens, UniProt P20393, DEL324-422).
T1 construct: 6×Histag-REV-ERBα LBD (human; residues 281-614 Δ324-422); made in house; host or cells: Escherichia coli
Put plainly: TR-FRET corepressor interaction assay (REV-ERBα LBD, FITC-SMRT peptide). To be noted: Table 2, read-out: REVERBα agonism (EC50 class, FRET assay). The format is biochemical. Put shortly: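 Compound serial dilutions (in DMSO, triplicate) incubated 2 h at 4 °C; Tb donor excited at 340 nm, emission read at 495 nm and FITC acceptor at 520 nm. TR-FRET ratio (520/495 nm) plotted against ligand concentration and fitted to a sigmoidal dose-response curve.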
Background: In TR-FRET formats the signal depends on donor and acceptor labels being close together.

Assay [2] concerns the target T2, REV-ERBβ (Homo sapiens, UniProt Q14995).
T2 construct: 6×Histag-REV-ERBα LBD (human; residues 381-579); made in house; host or cells: Escherichia coli
T2 sequence (Q14995 381-579): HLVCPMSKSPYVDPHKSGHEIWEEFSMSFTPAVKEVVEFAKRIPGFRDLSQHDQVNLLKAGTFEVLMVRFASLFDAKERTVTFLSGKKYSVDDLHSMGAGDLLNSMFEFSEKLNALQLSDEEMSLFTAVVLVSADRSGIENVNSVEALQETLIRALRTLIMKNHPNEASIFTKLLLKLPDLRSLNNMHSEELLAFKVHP
The assay can be described thus: TR-FRET corepressor interaction assay (REV-ERBβ, FITC-SMRT peptide). In kind it is biochemical. The following applies: Table 2, read-out: REVERBβ agonism (EC50 class, FRET assay). The protocol:
TR-FRET corepressor interaction assay. The time-resolved fluorescence resonance energy transfer (TR-FRET) assay was performed in black low-volume 384-well plates (Greiner). […] Ligand stocks were prepared via serial dilution in DMSO, added to wells in triplicate, and plates were incubated at 4° C. for 2 h and read using a BioTek Synergy Neo multimode plate reader. The Tb donor was excited at 340 nm; its fluorescence emission was monitored at 495 nm, and the acceptor FITC emission was measured at 520 nm; and the TR-FRET ratio was calculated as the signal at 520 nm divided by the signal at 495 nm. Data were plotted using GraphPad Prism as TR-FRET ratio vs. ligand concentration and fit to sigmoidal dose response curve equation.
Exemplary compounds of the present disclosure were assayed as described above to assess agonism of REV-ERBα and REV-ERBβ.

T1 sequence (P20393 with tags, fused parts or gaps DEL324-422): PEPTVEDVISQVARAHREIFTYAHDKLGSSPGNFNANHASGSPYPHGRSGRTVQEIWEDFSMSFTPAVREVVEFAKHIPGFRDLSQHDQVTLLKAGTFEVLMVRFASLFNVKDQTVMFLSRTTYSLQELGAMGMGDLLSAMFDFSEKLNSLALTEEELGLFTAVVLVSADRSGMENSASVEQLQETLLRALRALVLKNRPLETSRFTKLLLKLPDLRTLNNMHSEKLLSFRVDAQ
T1 sequence (Q9Y618 2335-2356 partner limits assumed): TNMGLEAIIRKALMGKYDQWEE

A word on the EC50: it is the concentration at which the effect is half-maximal. Consider `CC(C)Cn1cc(CCNS(=O)(=O)c2cccnc2)c2ccc(-c3ccncc3)cc21` [Compound 15], for which the EC50 in assay [1] is 0.5 to 3 µM; in assay [2], > 3 µM.

For `CCc1ccc2c(CCNS(=O)(=O)N(C)C)cn(CC(C)C)c2c1` [Compound 100, ({2-[6-ethyl-1-(2-methylpropyl)-1H-indol-3-yl]ethyl}sulfamoyl)dimethylamine], the values for the 50% effective concentration (EC50) in assay [1] and in assay [2] were < 0.5 µM and > 3 µM, respectively.

Take `CC(C)Cn1cc(CCNS(=O)(=O)N(C)C)c2ccc(-c3cccc4ccccc34)cc21` [Compound 39, dimethyl({2-[1-(2-methylpropyl)-6-(naphthalen-1-yl)-1H-indol-3-yl]ethyl}sulfamoyl)amine]: the EC50 in assay [1] was < 0.5 µM; in assay [2] it was > 3 µM.

As for `CC(C)Cn1cc(CCNS(=O)(=O)N(C)C)c2ccc(-c3ccccc3Cl)cc21` [Example 78, N-{2-[6-(2-chlorophenyl)-1-(2-methylpropyl)-1H-indol-3-yl]ethyl}-N,N-dimethylsulfuric diamide], the EC50 in assay [2] was > 3 µM.

For `CC(C)Cn1cc(CCNS(=O)(=O)N(C)C)c2ccc(C3CCCC3)cc21` [Compound 99, ({2-[6-cyclopentyl-1-(2-methylpropyl)-1H-indol-3-yl]ethyl}sulfamoyl)dimethylamine], the figures for the EC50 in assay [1] and in assay [2] were < 0.5 µM and 0.5 to 3 µM, respectively.

Turning to `CC(C)(C)Cn1cc([C@H](NS(=O)(=O)C2CC2)C(F)(F)F)c2cc(F)c(-c3ccccc3Cl)cc21` [Example 331, (S)—N-(1-(6-(2-chlorophenyl)-5-fluoro-1-neopentyl-1H-indol-3-yl)-2,2,2-trifluoroethyl)cyclopropanesulfonamide], the EC50 in assay [1] is < 0.5 µM; in assay [2], 0.5 to 3 µM.

For the molecule `CC(C)Cn1cc(CNS(=O)(=O)C(C)C)c2cc(F)c(-c3ccncc3)cc21` [Compound 265], the EC50 in assay [1] is < 0.5 µM; in assay [2], > 3 µM.

For `CC(C)(C)Cc1cn(CCNS(=O)(=O)C2CC2)c2ccc(Br)cc12` [Example 298, N-(2-(5-bromo-3-neopentyl-1H-indol-1-yl)ethyl)cyclopropanesulfonamide], the figures for the EC50 in assay [1] and in assay [2] were 0.5 to 3 µM and > 3 µM, respectively.

Regarding `CC(C)(C)Cc1cn(CCNS(=O)(=O)C2CC2)c2ccc(-c3c(Cl)cc(F)cc3Cl)cc12` [Example 297, N-(2-(5-(2,6-dichloro-4-fluorophenyl)-3-neopentyl-1H-indol-1-yl)ethyl) cyclo-propane sulfonamide], the EC50 in assay [1] and in assay [2] was 0.5 to 3 µM throughout.

For the molecule `CC(C)C(=O)n1cc(C(C)NS(=O)(=O)N(C)C)c2ccc(-c3ccncc3)cc21` (centres unmarked) [Example 180, 1-(3-{1-[(dimethylsulfamoyl)amino]ethyl}-6-(pyridin-4-yl)-1H-indol-1-yl)-2-methylpropan-1-one], the results for the EC50 in assay [1] and in assay [2] were < 0.5 µM and > 3 µM, respectively.

Regarding `CC(C)Cn1cc(CCNS(=O)(=O)N(C)C)c2ccc(-c3cccnc3)cc21` [Compound 28, dimethyl({2-[1-(2-methylpropyl)-6-(pyridin-3-yl)-1H-indol-3-yl]ethyl}sulfamoyl)amine], the results for the EC50 in assay [1] and in assay [2] were < 0.5 µM and > 3 µM, respectively.

As to `CC(C)(C)Cc1cn(CCNS(=O)(=O)C2CC2)c2ccc(-c3ccccc3C(F)(F)F)cc12` [Example 212, N-(2-(3-neopentyl-5-(2-(trifluoromethyl)phenyl)-1H-indol-1-yl)ethyl)cyclopropane sulfonamide], the EC50 was < 0.5 µM in assay [1] and 0.5 to 3 µM in assay [2].

With `CC(C)(C)Cn1cc(CNS(=O)(=O)C2CC2)c2cc(F)c(-c3ccccc3C(F)(F)F)cc21` [Compound 278], the EC50 in assay [1] was < 0.5 µM; in assay [2] it was 0.5 to 3 µM.

Regarding `CC(C)Cn1cc(CCNS(=O)(=O)N(C)C)c2ccc(-c3c(Cl)cccc3Cl)cc21` [Example 80, N-{2-[6-(2,6-dichlorophenyl)-1-(2-methylpropyl)-1H-indol-3-yl]ethyl}-N,N-dimethyl-sulfuric diamide], the EC50 in assay [1] was < 0.5 µM; in assay [2], > 3 µM.

In the case of `CC(C)Cn1cc(CCNS(=O)(=O)N(C)C)c2ccc(-c3ccnc(N4CCOCC4)c3)cc21` [Compound 36, dimethyl({2-[1-(2-methylpropyl)-6-[2-(morpholin-4-yl)pyridin-4-yl]-1H-indol-3-yl]ethyl}sulfamoyl)amine], the EC50 in assay [1] and in assay [2] was > 3 µM in each case.

For `CN(C)S(=O)(=O)N[C@@H](c1cn(CC(C)(C)C)c2cc(-c3ccccc3C(F)(F)F)ccc12)C(F)(F)F` [Example 323, {[(1S)-1-[1-(2,2-dimethylpropyl)-6-[2-(trifluoromethyl)phenyl]-1H-indol-3-yl]-2,2,2-trifluoroethyl]sulfamoyl}dimethylamine], the figures for the EC50 in assay [1] and in assay [2] were < 0.5 µM and > 3 µM, respectively.

Consider `Cc1noc(C)c1S(=O)(=O)NCCc1cn(CC(C)C)c2cc(-c3ccncc3)ccc12` [Compound 14], for which the EC50 in assay [1] and in assay [2] was > 3 µM in each case.

For the molecule `CC(C)(C)Cc1cn(CCNS(=O)(=O)C2CC2)c2ccc(-c3c(Cl)cccc3Cl)cc12` [Example 214, N-(2-(5-(2,6-dichlorophenyl)-3-neopentyl-1H-indol-1-yl)ethyl)cyclopropane-sulfonamide], the EC50 in assay [1] was < 0.5 µM; in assay [2], 0.5 to 3 µM.

Consider `CC(C)Cn1cc([C@H](NS(=O)(=O)C2CC2)C(F)(F)F)c2ccc(C(C)C)cc21` [Example 333, (S)—N-(2,2,2-trifluoro-1-(1-isobutyl-6-isopropyl-1H-indol-3-yl)ethyl)cyclopropanesulfonamide], for which the EC50 is < 0.5 µM in assay [1] and > 3 µM in assay [2].

Consider `CC(C)Cn1cc(CCNS(=O)(=O)N(C)C)c2ccc(-c3ccnc(Cl)c3)cc21` [Compound 20], for which the EC50 in assay [1] was < 0.5 µM; in assay [2] it was > 3 µM.

Take `Cc1ccc2c([C@H](NS(=O)(=O)C3CC3)C(F)(F)F)cn(CC(C)C)c2c1` [Example 309, (S)—N-(2,2,2-trifluoro-1-(1-isobutyl-6-methyl-1H-indol-3-yl)ethyl)cyclopropanesulfonamide]: the EC50 in assay [1] and in assay [2] was < 0.5 µM throughout.

As for `Cc1c(-c2ccncc2)ccc2c(CCNS(=O)(=O)N(C)C)cn(CC(C)C)c12` [Example 200, dimethyl({2-[7-methyl-1-(2-methylpropyl)-6-(pyridin-4-yl)-1H-indol-3-yl]ethyl}sulfamoyl)amine], the EC50 in assay [1] is < 0.5 µM; in assay [2], > 3 µM.

With `CC(C)Cn1cc(CCNS(=O)(=O)N(C)C)c2ccc(-c3ccnn3C)cc21` [Compound 34, dimethyl({2-[6-(1-methyl-1H-pyrazol-5-yl)-1-(2-methylpropyl)-1H-indol-3-yl]ethyl}sulfamoyl)amine], the EC50 in assay [1] is < 0.5 µM; in assay [2], > 3 µM.

As to `CC(C)Cn1cc(CCNS(=O)(=O)N(C)C)c2ccc(-c3cc[nH]c(=O)c3)cc21` [Compound 18], the EC50 in assay [1] and in assay [2] was > 3 µM throughout.

On to `CC(C)Cc1cn(CCNS(=O)(=O)N(C)C)c2ccc(-c3ccncc3)cc12` [Example 23, dimethyl({2-[3-(2-methylpropyl)-5-(pyridin-4-yl)-1H-indol-1-yl]ethyl}sulfamoyl)amine], for which the EC50 in assay [2] lay in the range of 0.5 to 3 µM.

Consider `CC(C)Cn1cc(CCNS(=O)(=O)N(C)C)c2ccc(-c3ccccc3)cc21` [Compound 30, dimethyl({2-[1-(2-methylpropyl)-6-phenyl-1H-indol-3-yl]ethyl}sulfamoyl)amine], for which, in assay [2], the EC50 fell in the range of 0.5 to 3 µM.

Regarding `CC(C)Cn1cc(CCNS(=O)(=O)N(C)C)c2ccc(C3CC3)cc21` [Example 82, N-{2-[6-cyclopropyl-1-(2-methylpropyl)-1H-indol-3-yl]ethyl}-N,N-dimethylsulfuric diamide], the EC50 in assay [2] is > 3 µM.

Turning to `COc1ccccc1-c1ccc2c(CCNS(=O)(=O)N(C)C)cn(CC(C)C)c2c1` [Example 58, N-{2-[6-(2-methoxylphenyl)-1-(2-methylpropyl)-1H-indol-3-yl]ethyl}-N,N-dimethylsulfuric diamide], in assay [2], the EC50 was > 3 µM.

In the case of `CC(C)Cn1cc(CCNS(=O)(=O)N(C)C)c2ccc(-c3ccncc3)cc21` [Compound 27, dimethyl({2-[1-(2-methylpropyl)-6-(pyridin-4-yl)-1H-indol-3-yl]ethyl}sulfamoyl)amine], in assay [2], the 50% effective concentration (EC50) was in the range of 0.5 to 3 µM.

Regarding `CC(C)(C)Cn1cc([C@H](NS(=O)(=O)C2CC2)C(F)(F)F)c2ccc(Br)cc21` [Example 343, (S)—N-(1-(6-bromo-1-neopentyl-1H-indol-3-yl)-2,2,2-trifluoroethyl)cyclopropanesulfonamide], the EC50 in assay [1] was < 0.5 µM.
